Data: US20060029548A1, “Methods of diagnosing, monitoring and treating pulmonary diseases” (priority 2004, published 2006)
Values joined by “and” are separate entries in the source; they are usually repeats but may differ in a detail not shown here. Equal values may be shown once. “Also recorded” adds a separate entry of the source.

Key:
[1] = system: human subjects (airway responsiveness, FEV1); experiment: Inhalation challenge test: airway responsiveness measured as change in FEV1 (PD20); type: in vivo; settings: for PD20 geometric mean: non-responders excluded; for PD20: individual subjects
Excerpt: The clinical study described in Examples 2-4 was randomized, double blind, crossover, and controlled. Each subject attended the laboratory on three occasions. Procedures on the initial screening visit included obtaining information about the study and a number of investigations in the following order: medical history, lung function, reversibility and skin prick testing. At visit 2 and 3, separated by 2-7 days, the subjects were subjected to either an ATP or AMP challenge in a randomized fashion such that, by the end of the study, each patient had been tested with both compounds. Before, immediately after, and 30 minutes after the challenge, lung function and Borg score for dyspnoea were determined, and symptoms other than dyspnoea were recorded.
In the clinical study described in Examples 2-4, spirometric tests were performed using a dry spirometer (Vitalograph Ltd., Buckingham, England) and the best value of the three expiratory manoeuvers was expressed as liters and percentage of the predicted.
For the tests described in Examples 2-4, ATP and AMP (Sigma, Gillingham, Dorset, England) were dissolved freshly in normal saline solution to produce a range of doubling concentrations from 0.227-929 umol/ml for ATP and from 0.138-1152 umol/ml for AMP and immediately used for bronchial challenge. The solutions were administered using a breath-activated dosimeter (Mefar, Bovezzo, Italy) with an output of 10 ul per inhalation [Prieto et al. (2003) Chest 123:993-997]. The subjects, while wearing a nose clip, inhaled (via a mouthpiece) five breaths of normal saline, followed by sequential doubling concentrations of either ATP or AMP from functional residual capacity to total lung capacity. FEV1 was measured from two minutes after the fifth inhalation of normal saline until there was a fall in FEV1 of ≧20% of its value recorded after saline inhalation or until maximal concentration of either ATP or AMP was inhaled. The provocative dose causing a 20% decrease in FEV1 (PD20) was calculated by interpolation of the logarithmic dose response curve.
All data from the analyses described in Examples 2-4 were performed with a software package (GraphPad Prism Software, Inc., USA). The significance of differences among groups was assessed by Student's t-test, and analysis of categorical variables was examined by Chi-square test. Pearson's correlation coefficient and linear regression analysis were used to analyze the relationship between the percentage decreases in FEV1 and Borg score. The PD20 values for ATP and AMP were logarithmically transformed to normalize their distribution and presented as geometric means. All other numerical variables were expressed as the mean±SEM and significance was defined as p<0.05.

[2] = system: pulmonary RAR-containing afferent nerve fiber; experiment: Vagal activation experiments in dogs: action potentials in RAR-containing fibers; type: in vivo; settings: anesthetized dog
Procedure: The experiments described in Example 5 were performed essentially as described in Pelleg et al. [(1996) J. Physiol. 490(1):265-275] and U.S. Pat. No. 5,874,420, both of which are incorporated herein by reference in their entirety. In brief, they were performed on anesthetized (sodium pentobarbitone, 30 mg kg^−1 plus 3 mg kg^−1 h^−1, intravenous) dogs artificially ventilated with room air using a respirator. Arterial blood pH, PO2, PCO2, body temperature were maintained as described in U.S. Pat. No. 5,874,420. A peripheral vein was cannulated for the administration of physiological saline solution and maintenance doses of anesthetic. Catheters were introduced via the femoral vein and left atrial appendage and positioned in the right atrium and left atrium for the administration of test solutions. The chest was opened by a longitudinal sternotomy. The right cervical vagosympathetic trunk was exposed by a midcervical longitudinal section of the skin and careful dissection of neck muscles and connective tissues. The edges of the cut skin were elevated and secured to create a trough which was filled with warm (about 37° C.) mineral oil. A section of the vagosympathetic trunk was placed on a small plate of black Perspex™ and fine branches were separated from the main bundle by careful dissection using microsurgical tools and a dissecting microscope (Model F212, Jenopik Jena, GmbH, Germany).
Extracellular neural action potentials were recorded using a custom-made bipolar electrode that contained two platinum-iridium wires (1.25 cm×0.0125 cm) connected to a high-impedence first-stage differential amplifier (model AC8331, CW, Inc., Ardmore, Pa.) via a shielded cable. The output of the first-stage amplifier was fed into a second-stage differential amplifier (model BMA-831/C, CWE, Inc.). Isolated fibers were laid on the pair of platinum-iridium wires. Vagal C fibers with chemosensitive endings have a sparse irregular discharge which is not associated with cardiac or respiratory cycles. Confirmation of fiber type was obtained by: first monitoring the response to capsaicin (10 microg kg^−1, intra-right atrial bolus); second, monitoring the response to mechanical stimulation of the lungs using gentle probing with forceps as well as inflation of the lungs to 2-3 times the tidal volume; and third, determining the speed of conduction using a stimulating electrode positioned distal to the initial recording site. Nerve fibers with RAR on their pulmonary endings, spontaneously fire a brief (i.e., short lasting) volley of action potentials associated with peak tracheal pressure during each respiratory cycle.
[…] Volume controls consisted of either 5 ml+5 ml or 1 ml+3 ml physiological saline. All injections were performed in the same mode by the same person. To exclude involvement of baroreceptors in the recorded neural activity, the latter was monitored before and after a bolus of nitroglycerine (1 mg; intravenous).
The procedure described in Example 1 was used to measure action potentials in dog pulmonary fibers with RAR on their terminals following administration of various agents. RAR activation generated a brief volley of action potentials associated with each respiratory cycle that was seen before as well as after administration of ATP (FIG. 7). […] Thus ATP modified the activity of the RAR-containing fiber manifested in their transient loss of the rapid adaptability characteristic.

Q: `Nc1ncnc2c1ncn2[C@@H]1O[C@H](COP(=O)(O)OP(=O)(O)OP(=O)(O)O)[C@@H](O)[C@H]1O` [ATP, adenosine 5′-triphosphate] was tested. Which patients with bronchoconstriction ([1]; 19 smoking subjects (seven healthy smokers, seven smokers at risk, five COPD)) did it give?
A: Its patients with bronchoconstriction is 42%.

Q: What about the “mean PD20” value ([1]; ATP-responsive COPD patients) of the same compound?
A: Its value is 178.5 µmol/mL.

Q: And the PD20 geometric mean ([1]; COPD (n = 7))?
A: Its PD20 geometric mean is 178.5 µmol/mL.

Q: What about the “patients who responded to challenge” value ([1]; COPD patients) of the same compound?
A: Its value is 67%.

Q: What about the “PD20 geometric mean (range)” value ([1]; all subjects who had airway responsiveness) of the same compound?
A: Its value is 72.9 (2.9-808.7) umol/ml.

Q: And the PD20 geometric mean ([1]; asthma (n = 10))?
A: The PD20 geometric mean was 48.7 µmol/mL.

Q: And the “mean PD20” value ([1]; asthma patients)?
A: The value was 48.7 µmol/mL.

Q: What about the response to challenge ([1]; healthy non-smokers, no change in FEV1 or reduction of less than 20%) of the same compound?
A: The response to challenge was “negative”.

Q: And the “control subjects who responded” value ([1]; healthy smoker control subjects)?
A: The value was “three of seven”.

Q: And the “subjects who responded to challenge” value ([1]; healthy smokers)?
A: Its value is 57%.

Q: And the PD20 geometric mean ([1]; healthy smokers (n = 7))?
A: The PD20 geometric mean was 197.0 µmol/mL.

Q: What about the PD20 ([1]; COPD (n = 7)) of the same compound?
A: The PD20 was 2.9 μmol/ml and >929 μmol/ml (2×) and 242.8 μmol/ml and 72.0 μmol/ml and 163.1 μmol/ml and 808.7 μmol/ml.

Q: What about the PD20 ([1]; asthma (n = 10)) of the same compound?
A: The PD20 was 44.8 µmol/mL and 23.6 µmol/mL and 20.9 µmol/mL and 67.9 µmol/mL and 92.2 µmol/mL and 160.6 µmol/mL and 18.1 µmol/mL and 28.1 µmol/mL and 137.0 µmol/mL and 49.0 µmol/mL.

Q: What about the PD20 ([1]; healthy smokers (n = 7)) of the same compound?
A: Its PD20 is 303.4 μmol/ml and >929 μmol/ml (3×) and 70.2 μmol/ml and 442.4 μmol/ml and 159.9 μmol/ml.

Q: And the PD20 ([1]; non-smokers (n = 10), provocative dose causing 20% decrease in FEV1)?
A: Its PD20 is >929 µmol/mL.

Q: What about the PD20 ([1]; smokers at risk (n = 7)) of the same compound?
A: The PD20 was >929 μmol/ml (6×) and 52.8 μmol/ml.

Q: What about the PD20 geometric mean ([1]; non-smokers (n = 10)) of the same compound?
A: Its PD20 geometric mean is >929 µmol/mL.

Q: What about the “subjects responsive to challenge” value ([1]; of the 40 subjects in the study) of the same compound?
A: The value was 47.5%.

Q: What about the “patients who responded to challenge” value ([1]; patients with asthma) of the same compound?
A: The value was 100%.

Q: What about the “ΔFEV1 (decrease in FEV1 as percentage of baseline FEV1)” value ([1]; patients with asthma) of the same compound?
A: Its value is 29%.

Q: What about the “subjects who responded to challenge” value ([1]; smokers at risk) of the same compound?
A: Its value is 14%.

Q: What about the PD20 geometric mean ([1]; smokers at risk (n = 7)) of the same compound?
A: Its PD20 geometric mean is 52.8 µmol/mL.

Q: And the “desensitization on repeated administrations” value ([2]; RAR-containing fibers)?
A: The value was “not associated with desensitization”.

Q: What about the “effect on action potentials of RAR-containing fibers” value ([2]; rapid bolus, ATP 6 μmol/kg, capsaicin 10 ug kg−1, analogs 0.75 umol kg−1) of the same compound?
A: The value was “activity of RAR-containing fibers was prolonged; also recorded: stimulated both the C fibers and RAR-containing fibers”.
